Reference: patent publication US9682926B2, “Cancer chemotherapeutic agent/formulation, manufacture and use thereof” (Bose Institute, priority 2012, dated 2017)
“And” between values parts separate entries of the source, which are not always exact repeats. Equal values may be shown once. Read-outs that look alike come from different tables or passages of the source.

Columns and labels:
[1] = test system: human PBMC; assay: Cytotoxicity (cell viability) of M2 against human PBMC; format: cell-based; conditions: for Total Cell Count (% survival): mean ± SD of five experiments
Experimental: Peripheral blood mononuclear cells (PBMC) were isolated from normal human blood and were maintained in RPMI supplemented with 10% FBS, 100 μg/ml streptomycin and 50 units/ml penicillin, at 37° C. in a humidified incubator containing 5% CO2. […] The doses that were tested ranged between 0.5433×10^−7 μM to 35 μM.

[2] = test system: A 549: Lung Cancer cell with wild type p53; assay: Cytotoxicity against cancer cell lines: A 549; format: cell-based
Experimental: (§1) Cancer cell lines with functional or disrupted p53 expression were maintained in ATCC recommended culture media supplemented with 10% FBS, 100 μg/ml streptomycin and 50 units/ml penicillin, at 37° C. in a humidified incubator containing 5% CO2. For experiments, cells (10^6) were plated with 2% serum and then the required experiments were performed. […] Simultaneously, the effect of the compound was also investigated in one p53 mutated breast cancer cell line and in one cervical cancer cell line with disrupted p53 pathway.

[3] = test system: HepG2: Liver Cancer cell with wild type p53; assay: Cytotoxicity against cancer cell lines: HepG2; format: cell-based
Experimental: as §1

[4] = test system: MCF-7: Breast Cancer cell with p53 wild type; assay: Cytotoxicity against cancer cell lines: MCF-7; format: cell-based
Experimental: as §1

[5] = test system: MDA MB 231: Breast Cancer cell with p53 mutation; assay: Cytotoxicity against cancer cell lines: MDA MB 231; format: cell-based
Experimental: as §1

[6] = test system: HeLA: Cervical Cancer Cell with unstable P53; assay: Cytotoxicity against cancer cell lines: HeLA; format: cell-based
Experimental: as §1

[7] = test system: MDA MB 231 (p53 mutated); assay: Cell cycle analysis of M2 treated p53 mutated breast cancer cell line (PI flowcytometry); format: cell-based; conditions: 12 hour exposure
Experimental: Cell cycle analyses were performed with the p53 mutated breast cancer cell line to explore deeper into the probable mechanism. […] For experiments, cells (10^6) were plated with 2% serum and then the required experiments were performed. Cells were harvested after 12 hour exposure with the compound at varying concentrations and cell cycle phase distribution of nuclear DNA was determined by flowcytometry using propidium iodide (PI) as DNA-binding fluorochrome.
Analyses of the cells in sub GO phase and S/G2/M are given as mean±Standard Deviation of five independent experiments.

[8] = test system: Sarcoma 180 cells; assay: Cytotoxicity study against Sarcoma 180 cells in vitro; format: cell-based, murine; conditions: Sarcoma 180 (in vitro)
Experimental: Before entering into the in vivo experiments with solid transplantable tumour model of sarcoma 180, the drug's efficacy was tested against the same tumor cell in vitro.

[9] = test system: S-180 tumor cells
Excerpt: (§2) For the determination of cell cycle phase distribution of nuclear DNA, cells from bone marrow and tumor tissue (1×10^6 cells) were harvested from tumor bearing untreated and treated mice.

[10] = test system: bone marrow cells
Excerpt: as §2

[11] = test system: S-180 tumor cells; assay: Comet assay in sarcoma tumor cells from treated mice (apoptosis); format: in vivo, Swiss albino mice; conditions: S-180 bearing mice, vs untreated sarcoma control
Experimental: Comet assay is a sensitive, reliable, and rapid method for DNA damage evaluation. The segmented DNA emigrates from the nucleus towards the anode under an electrical current to produce comets. About 400 μl of the cell suspension was mixed with 800 μl 1% low melting point agarose. Then 100 μl of the mixture was layered on slides precoated with a 1% normal melting point agarose and then covered with a cover slip. The slides were then placed in a refrigerator for 5 min. Then cover slips were carefully removed and the slides were left in a dark place except for the positive control slides. The positive control slides were treated with 200 μM H2O2 solution for 17 min at 4° C., while the negative control slides remained untreated. Then all the slides were immersed in cold lysis solution (2.5 M NaCl, 100 mM EDTA, 0.2 M NaOH, 10 mM Tris, 1% Triton X-100, pH=10), protected from light and refrigerated at 4° C. for 45 min. Slides were then left in freshly prepared electrophoresis solution (0.3 M NaOH, 1 mM EDTA, pH>13,) for 40 min. Electrophoresis was performed using the same solution at 300 mA, 25 V for 45 min. After electrophoresis the slides were neutralized gently with 0.4 M Tris buffer at pH 7.5 for 10 min and stained with 20 μg/ml ethidium bromide for 7 min. […] Comets were counted in four to five different fields of a section, and data are summarized in terms of percent comet. […]

[12] = Serum biochemical markers of toxicity (ALT, AST, ALP, creatinine); format: in vivo, Swiss albino mice; conditions: all M2 treated groups except the highest dose (40 μM)
Experimental: Alanine aminotransferase (ALT), aspartate aminotransferase (AST), alkaline phosphatase (ALP) and creatinine levels were measured from collected sera using kits (Sigma).

[13] = Experimental: (§3) The homogenate was then centrifuged at 10,000 g at 4° C. for 20 mins.
The amount of malondialdehyde was measured by reaction with thiobarbituric acid at 532 nm using spectrophotometer. MDA levels were calculated using the standard curve of malondialdehyde and its level expressed in nM/mg of protein.

[14] = test system: SOD, CAT and GST
Experimental: as §3
Briefly, assay mixture consists of 3 mL of H2O2 phosphate buffer and 0.05 mL of the supernatant of the tissue homogenate. The change in absorbance was recorded for 2 min at 30 s interval at 240 nm using spectrophotometer.
One unit of enzyme activity is defined as the amount of enzyme necessary for inhibiting the reaction by 50%. Auto oxidation of Pyrogallol in Tris-HCL buffer (50 mM, pH 7.5) is measured by increase in absorbance at 420 nm.

[15] = test system: bone marrow cells; format: in vivo, Swiss albino mice; conditions: S-180 tumor bearers
Excerpt: (§4) The cells were resuspended in RPMI-1640.

[16] = test system: Nrf-2; assay: Western blot of Nrf-2 in liver; format: in vivo, Swiss albino mice; conditions: S-180 tumor bearers, compared to sarcoma control
Experimental: (§5) Cell lysates were obtained and equal amounts of protein from each sample were diluted with loading buffer, denatured, and separated by 10% sodium dodecyl sulfate-polyacrylamide gel electrophoresis (SDS-PAGE) followed by protein transfer to polyvinylidene fluoride membranes (PVDF). […] Proteins were detected by incubation with corresponding primary antibodies (anti p53, anti-p21, anti-Nrf-2, anti-ERK3 and anti-PCNA) antibodies followed by blotting with AP-conjugated secondary antibody. The blots were then exposed to NBT/BCIP substrate for detection. This analysis was performed three times.

[17] = test system: PCNA; assay: Western blot of PCNA in bone marrow; format: in vivo, Swiss albino mice; conditions: all M2 treated groups, compared to sarcoma control
Experimental: as §5

[18] = test system: PCNA; assay: Western blot of PCNA in tumor tissue; format: in vivo, Swiss albino mice; conditions: S-180 tumor tissue
Experimental: as §5

[19] = test system: ERK; assay: Western blot of ERK in tumor tissue; format: in vivo, Swiss albino mice; conditions: S-180 tumor tissue, compared to sarcoma control and cyclophosphamide treated groups
Experimental: as §5

[20] = test system: Ehrlich's ascites carcinoma (EAC); assay: Ehrlich's ascites carcinoma (EAC) tumor model: tumor volume and cell count; format: in vivo; conditions: EAC bearing mice, 35 μM, vs EAC control and cyclophosphamide treated
Excerpt: Ehrlich's ascites carcinoma (EAC) cells were maintained by serial intra-peritoneal passage of 10^5 cells per mice. EAC cells were collected from tumor-bearing mice at the exponential phase of growth, roughly 7 days after tumor transplant. The cells were drawn out aseptically with the help of a fine needle. The cells were washed in PBS and counted with the help of a Hemocytometer by the Trypan Blue dye exclusion test. The cells were suspended in PBS and inoculated into the next batch of mice.

[21] = test system: bone marrow cells; format: in vivo; conditions: EAC tumor bearing mice
Excerpt: as §4

[22] = test system: human PBMC; assay: Cytotoxicity (cell viability) of M2 against human PBMC; format: cell-based; conditions: highest dose 30 μM
[23] = biological target: G-Quadruplex 5′-TAGGG(TTAGGG)3-3′; assay: Fluorescence emission titration with G-Quadruplex; conditions: read-out: equilibrium dissociation constant (KD); from change in fluorescence emission maxima of G-Quadruplex
Experimental: The emission spectra of a DNA duplex and G-Quadruplex sequence were recorded at room temperature using Hitachi spectrometer (F-700 FL spectrophotometer) with one cm path-length quartz cuvette. The emission spectrum was recorded from 300-500 nm with an excitation wavelength of 260 nm. Excitation and emission slits were set to 5 nm each. Emission spectra were recorded by titrating small molecules up to 50 μM concentration against 10 μM G-Quadruplex and duplex DNA.

[24] = S-180 tumor bearers, cyclophosphamide treatment

CN(CCC#N)c1ccc(C=NCCCN=Cc2ccc(N(C)CCC#N)cc2)cc1 [M2, Bis(3-[4-({[3-({4-[(2 cyanoethyl)(methyl)amino]benzylidene}amino)propyl]imino}methyl)(methyl)anilino]propanenitrile)]
effect on the viability of human PBMC ([1]; doses 0.1 to 25 μM): negligible effect
PBMC that could not survive the treatment ([1]; human PBMC, 35 μM, 12 hours): ~25%
Total Cell Count (% survival) ([1]; human PBMC, dose 1 μM): 90.67 ± 2.16%
Total Cell Count (% survival) ([1]; human PBMC, dose 5 μM): 89.50 ± 1.05%
Total Cell Count (% survival) ([1]; human PBMC, dose 10 μM): 88.67 ± 1.75%
Total Cell Count (% survival) ([1]; human PBMC, dose 15 μM): 88.83 ± 1.47%
Total Cell Count (% survival) ([1]; human PBMC, dose 20 μM): 87.33 ± 1.97%
Total Cell Count (% survival) ([1]; human PBMC, dose 25 μM): 85.17 ± 1.94%
Total Cell Count (% survival) ([1]; human PBMC, dose 30 μM): 77.67 ± 3.44%
Death Percentages ([2]; A 549, dose 15 μM): 26 ± 4.32%
Death Percentages ([2]; A 549, dose 20 μM): 34.25 ± 4.35%
Death Percentages ([2]; A 549, dose 25 μM): 47.75 ± 6.34%
Death Percentages ([3]; HepG2, dose 15 μM): 20.75 ± 5.25%
Death Percentages ([3]; HepG2, dose 20 μM): 38.5 ± 6.25%,
Death Percentages ([3]; HepG2, dose 25 μM): 55.86 ± 7.12%
Death Percentages ([4]; MCF-7, dose 15 μM): 23.00 ± 7.26%
Death Percentages ([4]; MCF-7, dose 20 μM): 32.5 ± 2.89%
Death Percentages ([4]; MCF-7, dose 25 μM): 41.5 ± 2.65%
Death Percentages ([5]; MDA MB 231, dose 15 μM): 36.50 ± 5.00%
Death Percentages ([5]; MDA MB 231, dose 20 μM): 47.00 ± 6.78%
Death Percentages ([5]; MDA MB 231, dose 25 μM): 60% and 60.25 ± 9.03%
Death Percentages ([6]; dose 15 μM): 20.5 ± 4.20%
Death Percentages ([6]; dose 20 μM): 37.75 ± 5.44%
Death Percentages ([6]; dose 25 μM): 46.75 ± 5.38%
% S/G2/M as from cell cycle analysis ([7]; MDA MB 231, dose 15 μM): 10.76 ± 1.38%
% Sub G0 as from cell cycle analysis ([7]; MDA MB 231, dose 15 μM): 16.08 ± 2.28%
% S/G2/M as from cell cycle analysis ([7]; MDA MB 231, dose 20 μM): 12.09 ± 1.77%
% Sub G0 as from cell cycle analysis ([7]; MDA MB 231, dose 20 μM): 27.38 ± 2.28%
% S/G2/M as from cell cycle analysis ([7]; MDA MB 231, dose 25 μM): 16.94 ± 4.82%
% Sub G0 as from cell cycle analysis ([7]; MDA MB 231, dose 25 μM): 30.50 ± 4.96%
Death Percentages ([8]; dose 15 μM): 36.67 ± 6.12%
Death Percentages ([8]; dose 20 μM): 50.33 ± 5.03%
Death Percentages ([8]; dose 25 μM): 57.33 ± 4.16%
hypoploid cells (sub-G0 region) of tumor cells ([9]; mouse, in vivo): 39.94% and 69.2% and 41.5%
proliferative stage (sum of S and G2/M) of tumor cells ([9]; mouse, in vivo): distinctive depression
bone marrow hypoploidy peak ([10]; mouse, in vivo): 5.4%
bone marrow proliferative phase ([10]; mouse, in vivo): did not decrease
DNA damage in tumor cells (percentage of comet cells per field) [11]: significant DNA damage
Serum ALT, AST, ALP values and creatinine levels [12]: within the normal range
hepatic LPO levels (oxidative stress) ([13]; mouse, in vivo): significant decrease
activity of hepatic anti-oxidant enzymes SOD, CAT and GST ([14]; mouse, in vivo): increase
bone marrow cell count / bone marrow suppression [15]: did not cause bone marrow suppression
Nrf-2 expression in the liver [16]: increased
PCNA expression in bone marrow [17]: significant increase
PCNA expression in tumor tissues [18]: decrease
expression of ERK in tumor tissues [19]: significantly reduce
tumor cell count [20]: significant reduction
tumor volume [20]: significant reduction
effect on bone marrow (cell count) [21]: protective effect
cytotoxic effect on human PBMC [22]: cytotoxic effect
Kd [23]: 31 ± 1.2 µM

O=P1(N(CCCl)CCCl)NCCCO1 (stereo not shown) [cyclophosphamide, reference compound]
hypoploid cells (sub-G0 region) of tumor cells ([9]; S-180 bearing mice, cyclophosphamide treated group): 42.1%
bone marrow hypoploidy peak [10, 24]: 48.5%
bone marrow proliferative phases (S and G2/M combined) [10, 24]: 3%
hepatic LPO levels (oxidative stress) ([13]; liver of S-180 tumor bearers, vs sarcoma control): further enhanced
activity of hepatic anti-oxidant enzymes SOD, CAT and GST ([14]; liver of S-180 tumor bearers, vs normal and sarcoma control): depression
bone marrow cell count / bone marrow suppression [15]: significant depression
effect on bone marrow (cell count) [21]: induces myelosuppression
